For 1 compound, IC50 results are on record in publication PMC10840338, “High efficacy of the F-ATP synthase inhibitor TBAJ-5307 against nontuberculous mycobacteria in vitro and in vivo” (The Journal of Biological Chemistry, 2024).

The experiment has as its target T1, F1FO-ATP synthase (FO domain, subunit c ring with subunit a) (Mycobacteroides abscessus, UniProt B1MLV6+B1MLV7).
T1 construct: gene atpE; native F1FO-ATP synthase in inverted-membrane vesicles of M. subsp. abscessus R variant; with subunit a (atpB); whole complex α3:β3:γ:ε:b-δ:b’:a:c9
Nature of the experiment: ATP synthesis inhibition in inverted-membrane vesicles (luminescence). The format is biochemical.

Structures are written as SMILES. pIC50: −log10 of the molar value.

The term pIC50 denotes the IC50 on a negative log10 scale, so that one unit is a factor of ten. A low value points to a high IC50. The compound `COc1cc([C@](O)(CCN(C)C)[C@@H](c2cc3cc(Br)ccc3nc2OC)c2ccnc(OC)c2OC)cc(OC)n1` [TBAJ-5307] had a pIC50 of 8.85.
